Measurements as given in patent US5837516A, “Subtilisin variants capable of cleaving substrates containing basic residues” (Genentech, Inc., priority 1995, dated 1998).
Where a chain is given by its changes, count along the chain named. Residues, ends and D or L forms follow the SMILES beside them.

Assays:
[1] = target: T1, subtilisin BPN' variant G166D (Bacillus amyloliquefaciens, UniProt P00782, G273D); test: Kinetic analysis, hydrolysis of suc-AAPX-pna substrates; type: biochemical; conditions: Lys P1 versus Phe P1 substrate
T1 construct: correct folding and maturation of subtilisin requires autolytic cleavage of its propeptide; made in house; host or cells: Bacillus subtilis BG2036 (protease-deficient), secreted
T1 sequence (P00782 108-382 G273D): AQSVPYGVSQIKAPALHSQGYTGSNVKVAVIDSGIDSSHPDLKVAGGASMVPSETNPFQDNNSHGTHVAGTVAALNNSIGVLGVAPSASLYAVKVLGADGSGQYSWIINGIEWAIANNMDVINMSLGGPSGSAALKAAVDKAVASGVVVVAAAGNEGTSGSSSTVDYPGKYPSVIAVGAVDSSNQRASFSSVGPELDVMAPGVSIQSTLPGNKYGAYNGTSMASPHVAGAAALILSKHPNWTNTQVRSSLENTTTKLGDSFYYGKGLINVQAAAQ
From the text: To probe the effects of the G166E and G166D on specificity at the P1 position we used substrates having the form suc-AAPX-pna (SEQ ID NO: 69) where X was either Lys (SEQ ID NO. 58), Arg (SEQ ID NO. 59), Phe (SEQ ID NO. 56), Met (SEQ ID NO. 60) or Gln (SEQ ID NO. 61). Whereas the wild-type enzyme preferred Phe>Met>Lys>Arg>Gln, the G166E preferred Lys^~ Phe>Arg^~ Met>Gln, and G166D preferred Lys>Phe^~ Arg^~ Met>Gln. Thus, both the acidic substitutions at position 166 caused a shift in preference for basic residues at the P1 site, as previously reported (Wells, J. A., Powers, D. B., Bott, R. R., Graycar, T. P.and Estell, D. A. (1987a), Proc. Natl. Acad. Sci. USA 84:1219-1223).
Subtilisins were assayed by measuring the initial rates of hydrolysis of p-nitroanilide tetrapeptide substrates in 0.4 mL 20 mM Tris-Cl pH 8.2, 4% (v/v) dimethyl sulfoxide at (25±0.2)° C. as described previously (Estell, D. A., Graycar, T. P., Miller, J. V., Powers, D. B., Burnier, J. P., Ng, P. G. and Wells, J. A. (1986)Science 233:659-663). Enzyme concentrations (E)0 were determined spectrophotometrically using E280 nm 0.1%=1.17 (Matsubara, H.; Kasper, C B.; Brown, D. M.; and Smith, E. L. (1965)J. Biol. Chem.,240:1125-1130.), and were typically 5-50 nM in reactions. Initial rates were determined for nine to twelve different substrate concentrations over the range of 0.001-2.0 mM. […]

[2] = target: T2, subtilisin BPN' variant N62D/Y104D/G166D (SEQ ID NO: 75) (Bacillus amyloliquefaciens, UniProt P00782, G273D/N169D/Y211D); test: Kinetic analysis, hydrolysis of succinyl-tetrapeptide-pNA substrates; type: biochemical; conditions: relative to succinyl-RAKR-pNA
T2 construct: the mature enzyme +1 to +275; made in house; host or cells: Bacillus subtilis BG2036 (protease-deficient), secreted
T2 sequence (P00782 108-382 N169D/Y211D/G273D): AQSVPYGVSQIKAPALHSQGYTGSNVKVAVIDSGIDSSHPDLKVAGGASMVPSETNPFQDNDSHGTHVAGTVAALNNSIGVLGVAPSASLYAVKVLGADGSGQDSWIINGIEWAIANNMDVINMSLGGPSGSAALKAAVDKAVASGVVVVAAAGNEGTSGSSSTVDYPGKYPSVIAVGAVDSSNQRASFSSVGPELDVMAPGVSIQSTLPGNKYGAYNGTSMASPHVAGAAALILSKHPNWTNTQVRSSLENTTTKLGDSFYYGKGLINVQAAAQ
Description: The mature N62D/Y104D/G166D variant was purified and analyzed for its ability to hydrolyze several tetrapeptide-pNA substrates.
Kinetic analysis of WT, N62D/G166D, and N62D/Y104D/G166D subtilisin BPN'
Subtilisins were assayed by measuring the initial rates of hydrolysis of p-nitroanilide tetrapeptide substrates in 0.4 mL 20 mM Tris-Cl pH 8.2, 4% (v/v) dimethyl sulfoxide at (25±0.2)° C. as described previously (Estell, D. A., Graycar, T. P., Miller, J. V., Powers, D. B., Burnier, J. P., Ng, P. G. and Wells, J. A. (1986)Science 233:659-663). Enzyme concentrations (E)0 were determined spectrophotometrically using E280 nm 0.1%=1.17 (Matsubara, H.; Kasper, C B.; Brown, D. M.; and Smith, E. L. (1965)J. Biol. Chem.,240:1125-1130.), and were typically 5-50 nM in reactions. Initial rates were determined for nine to twelve different substrate concentrations over the range of 0.001-2.0 mM. Plots of initial rates (v) versus substrate concentration (S) were fitted to the Michaelis-Menton equation, [formula] to determine the kinetic constants kcat and Km (Fersht, A. in "Enzyme Structure and Mechanism", Second edition, Freeman and Co., N.Y.) using the program Kaleidagraph (Synergy Software, Reading, Pa.).

subtilisin = target: T3, subtilisin (Bacillus amyloliquefaciens, UniProt P00782); conditions: Estell et al. (1986) Science 233:659-663; cited from earlier work
T3 sequence (P00782 108-382): T2 sequence (P00782 108-382 N169D/Y211D/G273D) with D62N, D104Y, D166G

In the case of `C[C@H](NC(=O)CCC(=O)O)C(=O)N[C@@H](C)C(=O)N1CCC[C@H]1C(=O)N[C@@H](CCCCN)C(=O)Nc1ccc([N+](=O)[O-])cc1` [Lys P1 substrate] (HELM PEPTIDE1{[O=C(O)CCC(=O)[*:2]].A.A.P.K.[O=[N+]([O-])c1ccc(N[*:1])cc1]}$$$$V2.0), the “ratio of catalytic efficiencies, times faster cleaved than the Phe P1 substrate” value [1] was “about 3 times”.
For `C[C@H](NC(=O)CCC(=O)O)C(=O)N[C@@H](C)C(=O)N1CCC[C@H]1C(=O)N[C@@H](Cc1ccccc1)C(=O)Nc1ccc([N+](=O)[O-])cc1` [succinyl-AAPF-pNA, N-succinyl-alanine-alanine-proline-phenylalanyl-p-nitroanalide] (HELM PEPTIDE1{[O=C(O)CCC(=O)[*:2]].A.A.P.F.[O=[N+]([O-])c1ccc(N[*:1])cc1]}$$$$V2.0), the “catalytic efficiency (kcat/Km), fold less efficiently hydrolyzed than succinyl-RAKR-pNA” value [2] is listed as 6×10^4 fold and the “kcat /Km ratio” value (subtilisin) is listed as 300000 M⁻¹ s⁻¹.
